Experimental data reported in ChEMBL document CHEMBL1139383, “Carbonic anhydrase inhibitors. Comparison of chlorthalidone and indapamide X-ray crystal structures in adducts with isozyme II: when three water molecules and the keto-enol tautomerism make the difference” (J Med Chem, 2009).

Target: Carbonic anhydrase 3 (Homo sapiens) (UniProt P07451)
Sequence (P07451 whole entry): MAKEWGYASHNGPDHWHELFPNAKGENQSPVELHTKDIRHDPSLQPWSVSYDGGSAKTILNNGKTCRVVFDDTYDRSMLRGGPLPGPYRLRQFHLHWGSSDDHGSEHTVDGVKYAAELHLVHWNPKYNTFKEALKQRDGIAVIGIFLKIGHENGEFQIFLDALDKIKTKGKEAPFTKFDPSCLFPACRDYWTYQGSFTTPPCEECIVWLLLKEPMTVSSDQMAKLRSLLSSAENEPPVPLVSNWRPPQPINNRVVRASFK
Description: Inhibition of human recombinant CA3 by stopped flow CO2 hydration assay

NS(=O)(=O)c1cc(C2(O)NC(=O)c3ccccc32)ccc1Cl (stereo unspecified)
Ki: 11 µM
